In patent US6673793B2, “Oxazinoquinolones useful for the treatment of viral infections” (Pharmacia & Upjohn Co., priority 2000, dated 2004):

How the values were obtained:
CMV polymerase = target: T1, CMV polymerase (Human cytomegalovirus, UniProt P08546); experiment: HCMV polymerase assay, scintillation proximity assay (SPA), modified version; format: biochemical; settings: modified HCMV polymerase SPA assay: compounds diluted in 100% DMSO, 4.5 mM DTT in polymerase buffer, different lot of CMV polymerase; read-out: CMV polymerase IC50
T1 construct: made in house; host or cells: recombinant baculovirus-infected SF-9 cells
T1 sequence (P08546 whole entry): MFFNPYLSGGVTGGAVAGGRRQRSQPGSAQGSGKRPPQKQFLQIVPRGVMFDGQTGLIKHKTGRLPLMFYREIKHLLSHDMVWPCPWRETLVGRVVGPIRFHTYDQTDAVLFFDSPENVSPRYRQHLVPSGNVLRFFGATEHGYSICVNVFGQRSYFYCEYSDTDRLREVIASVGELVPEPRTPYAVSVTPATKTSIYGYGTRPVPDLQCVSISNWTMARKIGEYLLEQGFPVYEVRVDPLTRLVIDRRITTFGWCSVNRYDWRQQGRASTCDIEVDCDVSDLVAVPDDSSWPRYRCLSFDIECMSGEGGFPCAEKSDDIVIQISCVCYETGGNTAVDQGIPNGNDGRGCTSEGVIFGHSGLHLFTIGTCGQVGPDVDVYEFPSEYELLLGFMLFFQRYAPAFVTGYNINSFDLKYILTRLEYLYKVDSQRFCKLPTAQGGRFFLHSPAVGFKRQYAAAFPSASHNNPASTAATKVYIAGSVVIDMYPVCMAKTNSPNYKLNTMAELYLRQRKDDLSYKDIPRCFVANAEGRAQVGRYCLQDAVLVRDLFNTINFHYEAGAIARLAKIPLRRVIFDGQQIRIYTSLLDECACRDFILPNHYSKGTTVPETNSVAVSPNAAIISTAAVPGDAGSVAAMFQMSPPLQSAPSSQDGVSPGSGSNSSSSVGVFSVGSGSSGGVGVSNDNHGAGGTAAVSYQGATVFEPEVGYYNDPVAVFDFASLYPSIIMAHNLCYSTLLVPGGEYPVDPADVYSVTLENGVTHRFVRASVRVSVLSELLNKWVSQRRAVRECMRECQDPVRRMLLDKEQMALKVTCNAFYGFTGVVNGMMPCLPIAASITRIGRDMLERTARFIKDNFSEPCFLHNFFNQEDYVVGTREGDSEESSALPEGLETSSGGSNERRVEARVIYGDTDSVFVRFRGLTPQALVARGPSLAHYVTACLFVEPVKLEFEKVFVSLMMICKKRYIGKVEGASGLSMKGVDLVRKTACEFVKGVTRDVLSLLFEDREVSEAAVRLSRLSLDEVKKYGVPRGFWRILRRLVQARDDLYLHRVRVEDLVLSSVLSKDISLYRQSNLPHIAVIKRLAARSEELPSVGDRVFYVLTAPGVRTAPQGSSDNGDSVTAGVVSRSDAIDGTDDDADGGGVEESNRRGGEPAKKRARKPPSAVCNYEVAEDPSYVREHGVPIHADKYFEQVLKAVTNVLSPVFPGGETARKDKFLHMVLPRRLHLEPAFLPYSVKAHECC
Description: The HCMV polymerase assay is performed using a scintillation proximity assay (SPA) as described in several references, such as N. D. Cook, et al., Pharmaceutical Manufacturing International, pages 49-53 (1992); K. Takeuchi, Laboratory Practice, September issue (1992); U.S. Pat. No. 4,568,649 (1986); which are incorporated by reference herein. Reactions are performed in 96-well plates. The assay is conducted in 100 μl volume with 5.4 mM HEPES (pH 7.5), 11.7 mM KCl, 4.5 mM MgCl2, 0.36 mg/ml BSA, and 90 nM ^3H-dTTP. Assays are run with and without CHAPS, (3-[(3-Cholamidopropyl)-dimethylammonio]-1-propane-sulfonate) at a final concentration of 2 mM. HCMV polymerase is diluted in enzyme dilution buffer containing 50% glycerol, 250 mM NaCl, 10 mM HEPES (pH 7.5), 100 μg/ml BSA, and 0.01% sodium azide. The HCMV polymerase, which is expressed in recombinant baculovirus-infected SF-9 cells and purified according to literature procedures, is added at 10% (or 10 μl) of the final reaction volume, i.e., 100 μl. Compounds are diluted in 50% DMSO and 10 μl are added to each well. Control wells contain an equivalent concentration of DMSO. Unless noted otherwise, reactions are initiated via the addition of 6 nM biotinylated poly(dA)-oligo(dT) template/primer to reaction mixtures containing the enzyme, substrate, and compounds of interest. Plates are incubated in a 25 C. or 37 C. H2O bath and terminated via the addition of 40 μl/reaction of 0.5 M EDTA (pH 8) per well. Reactions are terminated within the time-frame during which substrate incorporation is linear and varied depending upon the enzyme and conditions used, i.e., 30 min. for HCMV polymerase. Ten μl of streptavidin-SPA beads (20 mg/ml in PBS/10% glycerol) are added following termination of the reaction. Plates are incubated 10 min. at 37 C., then equilibrated to room temperature, and counted on a Packard Topcount. Linear regressions are performed and IC50's are calculated using computer software.
A modified version of the above HCMV polymerase assay is performed as described above, but with the following changes: Compounds are diluted in 100% DMSO until final dilution into assay buffer. In the previous assay, compounds are diluted in 50% DMSO. 4.5 mM dithiotherotol (DTT) is added to the polymerase buffer.

| SMILES | IC50 (CMV polymerase) [nM] | melting point |
| --- | --- | --- |
| COCOc1cc(OCOC)cc(C2Cn3cc(C(=O)NCc4ccc(Cl)cc4)c(=O)c4cc(CN5CCOCC5)cc(c43)O2)c1 (stereo not drawn) [Example 43, 2-[3,5-bis(Methoxymethoxy)phenyl]-N-(4-chlorobenzyl)-9-(morpholin-4-ylmethyl)-7-oxo-2,3-dihydro-7H-[1,4]oxazino[2,3,4-ij]quinoline-6-carboxamide] | 400 | 187 to 189 °C |
| CC(=O)OCC1Cn2cc(C(=O)NCc3ccc(Cl)cc3)c(=O)c3cc(CN4CCOCC4)cc(c32)O1 (stereo not drawn) [Example 24, [6-{[(4-Chlorobenzyl)amino]carbonyl}-9-(4-morpholinylmethyl)-7-oxo-2,3-dihydro-7H-[1,4]oxazino[2,3,4-ij]quinolin-2-yl]methyl acetate] | 740 | 215 to 218 °C |
| COCOCC1(COCOC)Cn2cc(C(=O)NCc3ccc(Cl)cc3)c(=O)c3cc(CN4CCOCC4)cc(c32)O1 [Example 51, N-(4-Chlorobenzyl)-2,2-bis[(methoxymethoxy)methyl]-9-(morpholin-4-ylmethyl)-7-oxo-2,3-dihydro-7H-[1,4]oxazino[2,3,4-ij]quinoline-6-carboxamide] | 750 | 147 to 149 °C |
| O=C(NCc1ccc(Cl)cc1)c1cn2c3c(cc(CN4CCOCC4)cc3c1=O)OC(CN1CCCCC1)C2 (stereo not drawn) [Example 8, N-(4-Chlorobenzyl)-9-(4-morpholinylmethyl)-7-oxo-2-(1-piperidinylmethyl)-2,3-dihydro-7H-[1,4]oxazino[2,3,4-ij]quinoline-6-carboxamide] | 1500 | 213 to 215 °C |
| O=C(NCc1ccc(Cl)cc1)c1cn2c3c(cc(CN4CCOCC4)cc3c1=O)OC(F)(F)C2 [Example 28, N-(4-Chlorobenzyl)-2,2-difluoro-9-(4-morpholinylmethyl)-7-oxo-2,3-dihydro-7H-[1,4]oxazino[2,3,4-ij]quinoline-6-carboxamide] | 600 | 213.5 to 216.5 °C |
| O=C(NCc1ccc(Cl)cc1)c1cn2c3c(cc(CN4CCOCC4)cc3c1=O)OC(c1ccccc1CO)C2 (stereo not drawn) [Example 69, N-(4-Chlorobenzyl)-2-[2-(hydroxymethyl)phenyl]-9-(morpholin-4-ylmethyl)-7-oxo-2,3-dihydro-7H-[1,4]oxazino[2,3,4-ij]quinoline-6-carboxamide] | 330 | 218 to 223 °C (dec.) |
| O=C(NCc1ccc(Cl)cc1)c1cn2c3c(cc(CN4CCOCC4)cc3c1=O)OC1(CCOCC1)C2 [Example 46, N-[(4-Chlorophenyl)methyl]-2,3,5,6-tetrahydro-9′-(4-morpholinylmethyl)-7′-oxospiro[4H-pyran-4,2′(3′H)-[7H]pyrido[1,2,3-de][1,4]benzoxazine]-6′-carboxamide] | 530 | 251 to 254 °C |
| O=C(NCc1ccc(Cl)cc1)c1cn2c3c(cc(CN4CCOCC4)cc3c1=O)OC1(CCNCC1)C2 [Example 48, N-[(4-Chlorophenyl)methyl]-9′-(4-morpholinylmethyl)-7′-oxospiro[piperidine-4,2′(3′H)-[7H]pyrido[1,2,3-de][1,4]benzoxazine]-6′-carboxamide] | 2150 | 246 to 250 °C (dec.) |
| O=C(NCc1ccc(Cl)cc1)c1cn2c3c(cc(CN4CCOCC4)cc3c1=O)OC(c1ccc(O)cc1)C2 (stereo not drawn) [Example 65, N-(4-Chlorobenzyl)-2-(4-hydroxyphenyl)-9-(morpholin-4-ylmethyl)-7-oxo-2,3-dihydro-7H-[1,4]oxazino[2,3,4-ij]quinoline-6-carboxamide] | 450 | > 260 °C |
| O=C(NCc1ccc(Cl)cc1)c1cn2c3c(cc(CN4CCOCC4)cc3c1=O)OC(c1cc(F)cc(F)c1)C2 (stereo not drawn) [Example 39, N-(4-Chlorobenzyl)-2-(3,5-difluorophenyl)-9-(morpholin-4-ylmethyl)-7-oxo-2,3-dihydro-7H-[1,4]oxazino[2,3,4-ij]quinoline-6-carboxamide] | 330 | 234 to 236 °C |
| COC(=O)CSCC1Cn2cc(C(=O)NCc3ccc(Cl)cc3)c(=O)c3cc(CN4CCOCC4)cc(c32)O1 (stereo not drawn) [Example 18, Methyl ({[6-{[(4-chlorobenzyl)amino]carbonyl}-9-(4-morpholinylmethyl)-7-oxo-2,3-dihydro-7H-[1,4]oxazino[2,3,4-ij]quinolin-2-yl]methyl}sulfanyl)acetate] | 580 | 182.5 to 183 °C |
| O=C(NCc1ccc(Cl)cc1)c1cn2c3c(cc(CN4CCOCC4)cc3c1=O)OC(Cn1ccnc1)C2 (stereo not drawn) [Example 13, N-(4-Chlorobenzyl)-2-(1H-imidazol-1-ylmethyl)-9-(4-morpholinylmethyl)-7-oxo-2,3-dihydro-7H-[1,4]oxazino[2,3,4-ij]quinoline-6-carboxamide] | 590 | 217 to 219 °C (dec.) |

More lines, in order of falling IC50 (CMV polymerase), values ahead:

| IC50 (CMV polymerase) [nM] | melting point | SMILES |
| --- | --- | --- |
| 1690 | 236 to 239 °C | COCOCc1ccc(C2Cn3cc(C(=O)NCc4ccc(Cl)cc4)c(=O)c4cc(CN5CCOCC5)cc(c43)O2)cc1 (stereo not drawn) [Example 67, N-(4-Chlorobenzyl)-2-{4-[(methoxymethoxy)methyl]phenyl}-9-(morpholin-4-ylmethyl)-7-oxo-2,3-dihydro-7H-[1,4]oxazino[2,3,4-ij]quinoline-6-carboxamide] |
| 1300 | 201 to 208 °C (dec.) | CN1CCN(CC2Cn3cc(C(=O)NCc4ccc(Cl)cc4)c(=O)c4cc(CN5CCOCC5)cc(c43)O2)CC1 (stereo not drawn) [Example 4, N-(4-Chlorobenzyl)-2-[(4-methyl-1-piperazinyl)methyl]-9-(4-morpholinylmethyl)-7-oxo-2,3-dihydro-7H-[1,4]oxazino[2,3,4-ij]quinoline-6-carboxamide] |
| 1170 | > 260 °C | O=C(NCc1ccc(Cl)cc1)c1cn2c3c(cc(CN4CCOCC4)cc3c1=O)OC1(CCC3(CC1)OCCO3)C2 [Example 50] |
| 830 | 213 °C (dec.) | CC(C)(C)OC(=O)N1CCC2(CC1)Cn1cc(C(=O)NCc3ccc(Cl)cc3)c(=O)c3cc(CN4CCOCC4)cc(c31)O2 [Example 47, 1,1-Dimethylethyl 6-[[[(4-chlorophenyl)methyl]amino]carbonyl]-9′-(4-morpholinylmethyl)-7′-oxospiro[piperidine-4,2′(3′H)-[7H]pyrido[1,2,3-de][1,4]benzoxazine]-1-carboxylate] |
| 810 | 230 to 233 °C | O=C(NCc1ccc(Cl)cc1)c1cn2c3c(cc(CN4CCOCC4)cc3c1=O)OC(CO)(CO)C2 [Example 52, N-(4-Chlorobenzyl)-2,2-bis(hydroxymethyl)-9-(morpholin-4-ylmethyl)-7-oxo-2,3-dihydro-7H-[1,4]oxazino[2,3,4-ij]quinoline-6-carboxamide] |
| 760 | 168 to 170 °C | CN(C)CC1Cn2cc(C(=O)NCc3ccc(Cl)cc3)c(=O)c3cc(CN4CCOCC4)cc(c32)O1 (stereo not drawn) [Example 3, N-(4-Chlorobenzyl)-2-[(dimethylamino)methyl]-9-(4-morpholinylmethyl)-7-oxo-2,3-dihydro-7H-[1,4]oxazino[2,3,4-ij]quinoline-6-carboxamide] |
| 590 | 202.5 to 204.5 °C | COCOCc1ccccc1C1Cn2cc(C(=O)NCc3ccc(Cl)cc3)c(=O)c3cc(CN4CCOCC4)cc(c32)O1 (stereo not drawn) [Example 66, N-(4-Chlorobenzyl)-2-{2-[(methoxymethoxy)methyl]phenyl}-9-(morpholin-4-ylmethyl)-7-oxo-2,3-dihydro-7H-[1,4]oxazino[2,3,4-ij]quinoline-6-carboxamide] |
| 550 | 190 to 191 °C | CSCC1Cn2cc(C(=O)NCc3ccc(Cl)cc3)c(=O)c3cc(CN4CCOCC4)cc(c32)O1 (stereo not drawn) [Example 14, N-(4-Chlorobenzyl)-2-[(methylsulfanyl)methyl]-9-(4-morpholinylmethyl)-7-oxo-2,3-dihydro-7H-[1,4]oxazino[2,3,4-ij]quinoline-6-carboxamide] |
| 540 | 186.5 to 189 °C | COCOCc1cccc(C2Cn3cc(C(=O)NCc4ccc(Cl)cc4)c(=O)c4cc(CN5CCOCC5)cc(c43)O2)c1 (stereo not drawn) [Example 61, N-(4-Chlorobenzyl)-2-{3-[(methoxymethoxy)methyl]phenyl}-9-(morpholin-4-ylmethyl)-7-oxo-2,3-dihydro-7H-[1,4]oxazino[2,3,4-ij]quinoline-6-carboxamide] |
